Measured values as given in patent US12122778B2, “Activating pyruvate kinase R” (Novo Nordisk Health Care AG, priority 2018, dated 2024).

Target: PKR(wt) (Homo sapiens, UniProt P30613)
Assay: Luminescence Biochemical Assay (Kinase Glo Plus), wild type PKR
Conditions: without FBP; for activation at 1.54 µM: 1.54 μM compound, read-out: AC50 LUM KGP woFBP % Fold@1.54 μM mean; for AC50: read-out: AC50 LUM KGP woFBP AC50 μM gmean; for Emax: read-out: AC50 LUM KGP woFBP MAX % FOLD mean
Experimental: In some embodiments, a PKR Activating Compound can have: (1) an AC50 value of less than 0.1 μM (e.g., compounds with AC50 values of “+++” in Table 13), 0.1-1.0 μM (e.g., compounds with AC50 values of “++” in Table 13), or 1.01-40 μM (e.g., compounds with AC50 values of “+” in Table 13); (2) a MAX % Fold of 75%-250%, 250-500%, or 75%-500%; and/or (3) a % Fold@1.54 μM of 75%-250%, 250-500%, or 75%-500%. In some embodiments, a PKR Activating Compound has (1) an AC50 value of less than 1.0 μM; (2) a MAX % Fold of 75%-500%; and/or (3) a % Fold@1.54 μM of 75%-500%.
The phosphorylation of Adenosine-5′-diphosphate (ADP) by various mutants of PKR was determined by the Kinase Glo Plus Assay (Promega) in the presence or absence of FBP [D-Fructose-1,6-diphosphate; BOC Sciences, CAS: 81028-91-3] as follows. Unless otherwise indicated, all reagents were purchased from Sigma-Aldrich. All reagents were prepared in buffer containing 50 mM Tris-HCl, 100 mM KCl, 5 mM MgCl2, and 0.01% Triton X100, 0.03% BSA, and 1 mM DTT. Enzyme and PEP [Phospho(enol) pyruvic acid] were added at 2× to all wells of an assay-ready plate containing serial dilutions of test compounds or DMSO vehicle. Final enzyme concentrations for PKR(wt), PKR(R510Q), and PKR(G332S) were 0.8 nM, 0.8 nM, and 10 nM respectively. Final PEP concentration was 100 μM. The Enzyme/PEP mixture was incubated with compounds for 30 minutes at RT before the assay was initiated with the addition of 2×ADP [Adenosine-5′-diphosphate] and KinaseGloPlus. Final concentration of ADP was 100 μM. […] For assays containing FBP, that reagent is added at 30 μM upon reaction initiation. Reactions were allowed to progress for 45 minutes at RT until luminescence was recorded by the BMG PHERAstar FS Multilabel Reader. All compounds were tested in triplicate at concentrations ranging from 42.5 μM to 2.2 nM in 0.83% DMSO.
Luminescence values were converted to % Fold increase by normalizing to the average of the DMSO control and multiplying by 100. Max, min, slope and AC50 were determined by the standard four parameter fit algorithm of ActivityBase XE Runner. Compounds were evaluated with three parameters—AC50, MAX % Fold, and % Fold@1.54 μM (FIG. 1). The AC50 value for a compound is the concentration (μM) corresponding to the midway between the maximum and minimum values of the four parameter logistic curve fit (i.e., at which the % fold increase along the four parameter logistic curve fit is halfway between MAX % Fold and MIN % Fold (% Fold Midpoint)), MAX % Fold is the highest fold increase observed at any concentration of compound, and % Fold@1.54 μM is the fold increase at a compound concentration of 1.54 μM. The parameter % Fold@1.54 μM was selected to capture elements of both the AC50 and MAX % Fold and to provide a ranking based on both potency and effect. The compound concentration of 1.54 μM was chosen as one that can optimally differentiate the set of compounds based on the range of activities observed.
As set forth in Table 13 below, AC50 values (columns A, D, G) are defined as follows: ≤0.1 μM (+++); >0.1 μM and ≤1.0 μM (++); >1.0 μM and ≤40 μM (+); >40 μM (0). Max % FOLD values (columns B, E, H) are defined as follows: ≤75% (+); >75% and ≤250% (++); >250% and ≤500% (+++). % Fold@1.54 μM values (columns C, F, J) are defined as follows: ≤75% (+); >75% and ≤250% (++); >250% and ≤50000 (+++).

Sequence of PKR(wt) (P30613 whole entry): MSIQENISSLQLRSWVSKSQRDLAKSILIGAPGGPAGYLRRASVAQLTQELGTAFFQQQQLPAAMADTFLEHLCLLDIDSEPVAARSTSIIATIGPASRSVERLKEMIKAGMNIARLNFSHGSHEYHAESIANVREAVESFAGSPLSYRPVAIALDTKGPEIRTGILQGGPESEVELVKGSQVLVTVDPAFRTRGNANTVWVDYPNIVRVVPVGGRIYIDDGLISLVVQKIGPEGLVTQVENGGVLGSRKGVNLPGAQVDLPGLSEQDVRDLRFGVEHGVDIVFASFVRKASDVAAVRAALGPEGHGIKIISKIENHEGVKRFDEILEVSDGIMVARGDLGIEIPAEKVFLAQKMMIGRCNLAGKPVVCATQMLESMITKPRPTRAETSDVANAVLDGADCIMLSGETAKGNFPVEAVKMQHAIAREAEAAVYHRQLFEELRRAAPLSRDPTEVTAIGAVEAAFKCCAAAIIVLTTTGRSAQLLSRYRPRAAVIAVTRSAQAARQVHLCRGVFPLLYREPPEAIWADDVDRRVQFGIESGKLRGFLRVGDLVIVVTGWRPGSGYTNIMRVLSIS

activation at 1.54 µM	AC50	Emax	Structure (SMILES)
75 to 250%	0.1 to 1 µM	250 to 500%	O=C(CCC(F)F)N1CC2=C(C1)CN(S(=O)(=O)c1ccc3occc3c1)C2 [Example 1-2, 1-(5-(Benzofuran-5-ylsulfonyl)-3,4,5,6-tetrahydropyrrolo[3,4-c]pyrrol-2(1H)-yl)-4,4-difluorobutan-1-one]
75 to 250%	0.1 to 1 µM	250 to 500%	CC(C)(O)C(=O)N1CC2=C(C1)CN(S(=O)(=O)c1ccc3occc3c1)C2 [Example 1-3, 1-(5-(Benzofuran-5-ylsulfonyl)-3,4,5,6-tetrahydropyrrolo[3,4-c]pyrrol-2(1H)-yl)-2-hydroxy-2-methylpropan-1-one]
75 to 250%	0.1 to 1 µM	250 to 500%	O=C(N1CC2=C(C1)CN(S(=O)(=O)c1ccc3occc3c1)C2)C1(O)CC1 [Example 1-4, (5-(Benzofuran-5-ylsulfonyl)-3,4,5,6-tetrahydropyrrolo[3,4-c]pyrrol-2(1H)-yl)(1-hydroxycyclopropyl)methanone]
75 to 250%	1 to 40 µM	75 to 250%	CN(C)CCC(=O)N1CC2=C(C1)CN(S(=O)(=O)c1ccc3occc3c1)C2 [Example 1-5, 1-(5-(Benzofuran-5-ylsulfonyl)-3,4,5,6-tetrahydropyrrolo[3,4-c]pyrrol-2(1H)-yl)-3-(dimethylamino)propan-1-one]
75 to 250%	1 to 40 µM	75 to 250%	NCC1(C(=O)N2CC3=C(C2)CN(S(=O)(=O)c2ccc4occc4c2)C3)CC1 [Example 2-1, (1-(Aminomethyl)cyclopropyl)(5-(benzofuran-5-ylsulfonyl)-3,4,5,6-tetrahydropyrrolo[3,4-c]pyrrol-2(1H)-yl)methanone]
75 to 250%	0.1 to 1 µM	250 to 500%	O=C(NC1CCOC1)N1CC2=C(C1)CN(S(=O)(=O)c1ccc3occc3c1)C2 (stereo not drawn) [Example 3-2, 5-(Benzofuran-5-ylsulfonyl)-N-(tetrahydrofuran-3-yl)-3,4,5,6-tetrahydropyrrolo[3,4-c]pyrrole-2(1H)-carboxamide]
75 to 250%	1 to 40 µM	75 to 250%	COC[C@@H](C)NC(=O)N1CC2=C(C1)CN(S(=O)(=O)c1ccc3occc3c1)C2 [Example 3-3, (R)-5-(benzofuran-5-ylsulfonyl)-N-(1-methoxypropan-2-yl)-3,4,5,6-tetrahydropyrrolo[3,4-c]pyrrole-2(1H)-carboxamide]
75 to 250%	0.1 to 1 µM	75 to 250%	O=C(NCc1cccnc1)N1CC2=C(C1)CN(S(=O)(=O)c1ccc3occc3c1)C2 [Example 3-4, 5-(Benzofuran-5-ylsulfonyl)-N-(pyridin-3-ylmethyl)-3,4,5,6-tetrahydropyrrolo[3,4-c]pyrrole-2(1H)-carboxamide]
75 to 250%	1 to 40 µM	75 to 250%	O=C(NCC1CCOC1)N1CC2=C(C1)CN(S(=O)(=O)c1ccc3occc3c1)C2 (stereo not drawn) [Example 3-5, 5-(Benzofuran-5-ylsulfonyl)-N-((tetrahydrofuran-3-yl)methyl)-3,4,5,6-tetrahydropyrrolo[3,4-c]pyrrole-2(1H)-carboxamide]
75 to 250%	1 to 40 µM	75 to 250%	NS(=O)(=O)c1ccc(S(=O)(=O)N2CC3=C(CN(C(=O)[C@H](O)c4ccccc4)C3)C2)cc1 [Example 13-1, (R)-4-((5-(2-hydroxy-2-phenylacetyl)-3,4,5,6-tetrahydropyrrolo[3,4-c]pyrrol-2(1H)-yl)sulfonyl)benzenesulfonamide]
75 to 250%	1 to 40 µM	75 to 250%	O=C([C@H](O)c1ccccc1)N1CC2=C(C1)CN(S(=O)(=O)c1ccccc1OC(F)(F)F)C2 [Example 18-46, (2R)-2-hydroxy-2-phenyl-1-{5-[2-(trifluoromethoxy)benzenesulfonyl]-1H,2H,3H,4H,5H,6H-pyrrolo[3,4-c]pyrrol-2-yl}ethan-1-one]
75 to 250%	0.1 to 1 µM	75 to 250%	O=C([C@H](O)c1ccccc1)N1CC2=C(C1)CN(S(=O)(=O)c1cc(F)ccc1Cl)C2 [Example 18-57, (2R)-1-[5-(2-chloro-5-fluorobenzenesulfonyl)-1H,2H,3H,4H,5H,6H-pyrrolo[3,4-c]pyrrol-2-yl]-2-hydroxy-2-phenylethan-1-one]
75 to 250%	1 to 40 µM	75 to 250%	CC[C@H](O)C(=O)N1CC2=C(C1)CN(S(=O)(=O)c1ccc3c(c1)N(C)CCO3)C2 [Example 18-75, (2S)-2-hydroxy-1-{5-[(4-methyl-3,4-dihydro-2H-1,4-benzoxazin-6-yl)sulfonyl]-1H,2H,3H,4H,5H,6H-pyrrolo[3,4-c]pyrrol-2-yl}butan-1-one]
75 to 250%	1 to 40 µM	75 to 250%	CN1CCOc2ccc(S(=O)(=O)N3CC4=C(CN(C(=O)[C@@H]5CCCO5)C4)C3)cc21 [Example 18-77, 4-Methyl-6-({5-[(2S)-oxolane-2-carbonyl]-1H,2H,3H,4H,5H,6H-pyrrolo[3,4-c]pyrrol-2-yl}sulfonyl)-3,4-dihydro-2H-1,4-benzoxazine]
75 to 250%	1 to 40 µM	75 to 250%	CN1CCOc2ccc(S(=O)(=O)N3CC4=C(CN(C(=O)C5CCCC5)C4)C3)cc21 [Example 18-78, 6-({5-Cyclopentanecarbonyl-1H,2H,3H,4H,5H,6H-pyrrolo[3,4-c]pyrrol-2-yl}sulfonyl)-4-methyl-3,4-dihydro-2H-1,4-benzoxazine]
250 to 50000%	0.1 to 1 µM	250 to 500%	O=C(c1csc(Nc2cccnc2)n1)N1CC2=C(C1)CN(S(=O)(=O)c1ccc3occc3c1)C2 [Example 18-79, N-{4-[5-(1-benzofuran-5-sulfonyl)-1H,2H,3H,4H,5H,6H-pyrrolo[3,4-c]pyrrole-2-carbonyl]-1,3-thiazol-2-yl}pyridin-3-amine]
250 to 50000%	0.1 to 1 µM	250 to 500%	O=C(c1ccc(OCC(F)(F)F)nc1)N1CC2=C(C1)CN(S(=O)(=O)c1ccc3occc3c1)C2 [Example 18-81, 5-[5-(1-Benzofuran-5-sulfonyl)-1H,2H,3H,4H,5H,6H-pyrrolo[3,4-c]pyrrole-2-carbonyl]-2-(2,2,2-trifluoroethoxy)pyridine]
75 to 250%	1 to 40 µM	75 to 250%	Cc1cnc(C(=O)N2CC3=C(C2)CN(S(=O)(=O)c2ccc4occc4c2)C3)cn1 [Example 18-82, 2-[5-(1-Benzofuran-5-sulfonyl)-1H,2H,3H,4H,5H,6H-pyrrolo[3,4-c]pyrrole-2-carbonyl]-5-methylpyrazine]

Structure (SMILES)	activation at 1.54 µM	AC50	Emax
CS(=O)(=O)NCC(=O)N1CC2=C(C1)CN(S(=O)(=O)c1ccc3occc3c1)C2 [Example 1-1, N-(2-(5-(benzofuran-5-ylsulfonyl)-3,4,5,6-tetrahydropyrrolo[3,4-c]pyrrol-2(1H)-yl)-2-oxoethyl)methanesulfonamide]	75 to 250%	0.1 to 1 µM	75 to 250%
O=C(NCC1CCCO1)N1CC2=C(C1)CN(S(=O)(=O)c1ccc3occc3c1)C2 (stereo not drawn) [Example 3-1, 5-(Benzofuran-5-ylsulfonyl)-N-((tetrahydrofuran-2-yl)methyl)-3,4,5,6-tetrahydropyrrolo[3,4-c]pyrrole-2(1H)-carboxamide]	75 to 250%	0.1 to 1 µM	75 to 250%
